Measured values as given in ChEMBL document CHEMBL1201862, “PubChem BioAssay data set” (2004).
Values joined by “and” are separate entries in the source; they are usually repeats but may differ in a detail not shown here. Identical values can stand only once. Blank lines part the entries; values can stand above or below the compound they belong to. Active and inactive are the calls of the source.

What was measured:
[1] = LMP1-driven NF-kB reporter inhibition, dose response, cell-based, luciferase reporter, luminescence, dry powder, set 2 (AID 624376); type: functional
[2] = HEK293 cell cytotoxicity, dose response, cytotoxicity control, cherry-picks, set 5 (AID 1053117); type: functional, cell-based
[3] = A549 cell cytotoxicity, dose response, cytotoxicity control, cherry-picks, 26 µM top dose (AID 1053119); type: functional, cell-based
Paired box protein Pax-8 = Paired box protein Pax-8 (Homo sapiens, UniProt Q06710); experiment: inhibitors of PAX8-driven TPO luciferase reporter, dose response, RMG-I cells, cherry-pick (AID 687027); type: functional, cell-based;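 further: luciferase reporter driven by Pax8 target thyroperoxidase promoter measured by SteadyGlo luminescence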
[4] = inhibitors of CMV-promoter luciferase reporter, dose response, counter-screen for Pax8 inhibitor project, cell-based, HEK293, luminescence, dry powder (AID 743020); type: functional
[5] = NIH:OVCAR-3 ovarian cancer cell cytotoxicity, dose response, PAX8 inhibitor project, plate reader, dry powder samples (AID 743044); type: functional, cell-based
[6] = cytotoxicity in OVCAR8 ovarian cancer cells, dose response, PAX8 project, cell-based, plate reader, dry powder samples (AID 743197); type: functional; settings: OVCAR-8
[7] = CTGF mRNA reduction under YAP1 overexpression, dose response, mechanism study for YAP1 pathway inhibitor project, DLD1 cells, RT-qPCR, cherry-pick (AID 1053127); type: functional, cell-based; settings: DLD-1
[8] = inhibitors of PGC1a acetylation in cells, dose response, cell-based, cherry-picked samples (AID 720514); type: functional;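 further: potency may reflect raised or lowered acetylation signal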
[9] = HepG2 cell cytotoxicity, dose response, cytotoxicity control, luminescence plate reader, powder samples, set 2 (AID 651860); type: functional, cell-based
[10] = biological target: COUP transcription factor 2 (Homo sapiens, UniProt P24468); experiment: Luminescence-based cell-based high throughput dose response assay to identify inhibitors of COUP-TFII (NR2F2).; type: functional;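 further: HEK293 cells transiently cotransfected with COUP-TFII expression vector and reporter; luciferase reporter luminescence driven by COUP-TFII from the pX2-168 reporter plasmid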
[11] = NIH/3T3 fibroblast cytotoxicity, dose response, cytotoxicity control, cell-based, plate reader, dry powder, set 2 (AID 652280); type: functional; settings: NIH3T3
[12] = T. cruzi growth inhibition in host cells, dose response, cell-based, plate reader, dry powder, set 2 (AID 652275); type: functional
[13] = biological target: NAD-dependent protein deacylase sirtuin-5, mitochondrial (Homo sapiens, UniProt Q9NXA8); experiment: SIRT5 desuccinylase inhibitors, dose response, biochemical, fluorescence imaging, cherry-pick, set 5 (AID 720591);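 further: desuccinylation of succinyl peptide AMC substrate read as fluorescence after trypsin release; potency of inhibitors that lower fluorescence and may act on trypsin instead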
[14] = P. falciparum Dd2 growth inhibitors, dose response, SYBR Green, dry powder samples, set 9 (AID 1159568); type: functional, cell-based
[15] = biological target: G-protein coupled receptor 183 (Homo sapiens, UniProt P32249); experiment: SAR confirmation of small molecule antagonists of the EBI2 receptor via a luminescent beta-arrestin assa.; type: functional
[16] = Dose-response inhibition of insulin secretion in a rat insulinoma line at 5 mM glucose (AID 1117331); type: functional, cell-based; settings: INS-1E
[17] = half-maximal inhibitory concentration for glucagon-like peptide-1 release, STC-1 cell line, dose-response (AID 1117345); type: functional, cell-based
[18] = Glucagon-like peptide 1 release potency, NCI-H716 cell line, dose-response, half-maximal inhibitory concentration (AID 1117344); type: functional, cell-based
[19] = biological target: RNA-editing ligase 1, mitochondrial (Trypanosoma brucei brucei, UniProt P86926); experiment: TbREL1 ligase inhibitors, dose response, biochemical, fluorescence, Trypanosoma brucei (AID 1117295); type: functional
RNA-editing ligase 1, mitochondrial, sequence (P86926 whole entry): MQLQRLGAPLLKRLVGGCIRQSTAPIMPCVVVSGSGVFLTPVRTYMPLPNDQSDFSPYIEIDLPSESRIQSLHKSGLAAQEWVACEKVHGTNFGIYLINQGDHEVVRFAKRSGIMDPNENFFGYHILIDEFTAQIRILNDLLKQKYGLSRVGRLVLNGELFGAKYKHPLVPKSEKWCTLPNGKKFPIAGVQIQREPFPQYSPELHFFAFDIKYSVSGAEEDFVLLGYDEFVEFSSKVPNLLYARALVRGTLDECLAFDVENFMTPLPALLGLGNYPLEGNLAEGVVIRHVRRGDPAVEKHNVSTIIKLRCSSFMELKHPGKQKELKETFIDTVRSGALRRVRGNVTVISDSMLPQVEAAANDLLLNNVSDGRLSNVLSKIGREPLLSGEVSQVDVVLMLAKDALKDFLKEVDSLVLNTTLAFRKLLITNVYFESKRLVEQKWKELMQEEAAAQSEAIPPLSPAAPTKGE

Paired box protein Pax-8, sequence (Q06710 whole entry): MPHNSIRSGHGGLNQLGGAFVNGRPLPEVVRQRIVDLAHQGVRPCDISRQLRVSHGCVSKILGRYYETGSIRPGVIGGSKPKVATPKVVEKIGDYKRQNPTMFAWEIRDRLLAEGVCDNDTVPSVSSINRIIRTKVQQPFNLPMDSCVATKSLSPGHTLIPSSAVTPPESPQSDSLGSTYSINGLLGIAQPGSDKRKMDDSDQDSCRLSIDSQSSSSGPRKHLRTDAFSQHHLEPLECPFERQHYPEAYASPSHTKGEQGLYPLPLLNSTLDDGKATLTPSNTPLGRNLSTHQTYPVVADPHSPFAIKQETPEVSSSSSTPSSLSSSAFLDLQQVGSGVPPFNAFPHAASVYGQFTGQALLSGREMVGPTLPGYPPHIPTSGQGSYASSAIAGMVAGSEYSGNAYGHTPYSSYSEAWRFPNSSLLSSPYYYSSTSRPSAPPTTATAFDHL
G-protein coupled receptor 183, sequence (P32249 whole entry): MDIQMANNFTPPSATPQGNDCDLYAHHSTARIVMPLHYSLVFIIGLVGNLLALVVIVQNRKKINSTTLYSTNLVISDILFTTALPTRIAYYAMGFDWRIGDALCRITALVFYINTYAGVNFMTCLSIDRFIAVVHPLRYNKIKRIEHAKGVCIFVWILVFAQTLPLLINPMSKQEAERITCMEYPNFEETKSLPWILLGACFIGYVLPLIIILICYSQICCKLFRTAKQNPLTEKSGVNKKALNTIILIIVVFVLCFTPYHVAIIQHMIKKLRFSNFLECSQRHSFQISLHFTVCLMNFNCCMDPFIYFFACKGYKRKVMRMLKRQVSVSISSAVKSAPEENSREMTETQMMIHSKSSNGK
COUP transcription factor 2, sequence (P24468 whole entry): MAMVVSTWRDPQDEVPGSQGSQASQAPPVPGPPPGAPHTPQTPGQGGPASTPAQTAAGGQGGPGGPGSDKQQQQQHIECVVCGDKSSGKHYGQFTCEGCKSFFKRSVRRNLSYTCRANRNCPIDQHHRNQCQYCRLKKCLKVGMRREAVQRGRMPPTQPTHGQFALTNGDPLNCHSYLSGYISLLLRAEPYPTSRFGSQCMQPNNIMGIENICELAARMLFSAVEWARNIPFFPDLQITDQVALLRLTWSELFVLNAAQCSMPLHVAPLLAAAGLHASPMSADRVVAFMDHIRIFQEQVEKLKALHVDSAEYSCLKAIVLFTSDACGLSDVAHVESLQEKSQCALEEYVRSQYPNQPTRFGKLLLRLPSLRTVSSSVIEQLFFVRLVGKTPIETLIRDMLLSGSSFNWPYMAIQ
NAD-dependent protein deacylase sirtuin-5, mitochondrial, sequence (Q9NXA8 whole entry): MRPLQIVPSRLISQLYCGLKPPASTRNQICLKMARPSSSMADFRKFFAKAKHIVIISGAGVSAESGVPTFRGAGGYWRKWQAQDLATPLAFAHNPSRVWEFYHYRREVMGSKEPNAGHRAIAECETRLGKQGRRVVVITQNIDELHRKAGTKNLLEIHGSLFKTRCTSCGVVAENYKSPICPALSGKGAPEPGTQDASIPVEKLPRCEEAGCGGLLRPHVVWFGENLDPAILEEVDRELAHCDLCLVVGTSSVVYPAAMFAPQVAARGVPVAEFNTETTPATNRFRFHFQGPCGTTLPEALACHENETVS

Structure (SMILES): CC(C)(C)[S@@+]([O-])N1Cc2cc(C(=O)NCc3ccccc3F)nc(-c3cccc(-c4ccncc4)c3)c2[C@H]1CCO
- AbsAC35 [1]: 50.48 µM
- AC50 [2]: > 52 µM (inactive)
- AC50 [3]: 32.2 µM (active)

Structure (SMILES): C[C@@H]1CN([C@H](C)CO)C(=O)c2cc(NC(=O)Nc3ccc(F)cc3)ccc2O[C@@H](C)CCCCO[C@@H]1CN(C)Cc1ccc(C(F)(F)F)cc1
- AC50 (Paired box protein Pax-8): 5.91 µM (active)
- AC50 [4]: 40.6 µM (active)
- AC50 [5]: 12.4 µM (active)
- AC50 [6]: 39.5 µM (active)

Structure (SMILES): O=C(Cc1ccncc1)N1CCCCN2[C@H](CO)[C@@H](c3ccc(C#Cc4ccccc4F)cc3)[C@@H]2C1
- AC50 [7]: 24.8 µM (active)

Structure (SMILES): O=C1CN(S(=O)(=O)Cc2ccccc2)C[C@@H]2[C@@H](c3ccc(C#Cc4cccc(F)c4)cc3)[C@@H](CO)N12
- AC50 [8]: 21.6 µM (active)

Structure (SMILES): O=C(O)C1CCCCC1C(=O)Nc1ccccc1CN1C(=O)c2ccccc2C1=O (stereo not given)
- AC50 [9]: > 52 µM (inactive)

- IC50 [10]: 9.88 µM (active)
Structure (SMILES): Cc1cc(C)c(O)c(C(=O)CC2CC(=O)NC(=O)C2)c1

Structure (SMILES): CC(C)N1C[C@@H](C)[C@H](CN(C)Cc2ccc(Oc3ccccc3)cc2)Oc2c(C(=O)Nc3ccncc3)cccc2C1=O
- AC50 [11]: 6.05 µM (active)
- AC50 [12]: 40.5 nM (active) and 71.6 nM (active)

- AC50 [13]: > 30 µM (inactive)
Structure (SMILES): C[C@@H]1CN([C@@H](C)CO)C(=O)c2cc(Br)cnc2O[C@H]1CN(C)Cc1cccnc1

Structure (SMILES): CC(C)CC#Cc1ccc([C@@H]2[C@H]3CN(C(=O)Nc4ccccc4)CCCCN3[C@H]2CO)cc1
- AC50 [14]: 2.67 µM (active)

- IC50 [15]: 0.00172 µM (active)
Structure (SMILES): O=C(/C=C/c1ccc(Br)cc1)N1CCN(Cc2ccc(Cl)c(Cl)c2)CC1

Structure (SMILES): O=C(O)C1CCC1
- IC50 [16]: > 33.3 µM (inactive)
- IC50 [17]: > 40 µM (inactive)
- IC50 [18]: > 40 µM (inactive)

- IC50 [19]: > 96.6 µM (inactive)
Structure (SMILES): COC(=O)C1=C(C)N(Cc2cccc(C(F)(F)F)c2)C(NCc2ccc(C(F)(F)F)cc2)=NC1c1ccccc1C(F)(F)F (stereo not given)
